# In US8574831B2, “Mutational profiles in HIV-1 reverse transcriptase correlated with phenotypic drug resistance” (Virco N.V., priority 2000, dated 2013):
# Test system: HIV with mutations in the HIV protease sequence
# Test: Phenotypic fold resistance to protease inhibitors, protease mutations 84A/84L/84C/54M/54L/54V in a background (Examples 8-13)
# Assay type: cell-based, HIV-1
# Outline: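 Fold-resistance equals chimeric-virus IC50 divided by IC50 of a parallel wild-type reference HIV-1 strain. Chimeras come from PCR-amplified PR/RT genes recombined into PR/RT-deleted HXB2 proviral DNA inside CD4+ T cells, then cultured with graded drug concentrations.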
smiles,measurement,setting,value
"CC(C)(C)NC(=O)[C@@H]1CN(Cc2cccnc2)CCN1C[C@@H](O)C[C@@H](Cc1ccccc1)C(=O)N[C@H]1c2ccccc2C[C@H]1O [Indinavir, indinavir]",Fold change in IC50,"Table 12, V055199, genotype 10I + 33F + 54M + 90M",2.3 fold
same,Fold change in IC50,"Table 13, V19263, genotype 77I",0.4 fold
same,Fold change in IC50,"Table 13, V20160, genotype WT",0.9 fold
same,Fold change in IC50,"Table 13, V021667, genotype 10I",0.7 fold
same,Fold change in IC50,"Table 13, V030496, genotype 10I + 77I",0.4 fold
same,Fold change in IC50,"Table 13, V048868, genotype 10I + 54L + 71V + 77I + 90M",6.2 fold
same,Fold change in IC50,"Table 13, V048874, genotype 10I + 33F + 54L + 71V + 77I + 90M",2.1 fold
same,Fold change in IC50,"Table 13, V048875, genotype 10I + 33F + 54L + 71V + 77I + 90M",3.7 fold
same,Fold change in IC50,"Table 13, V048877, genotype 10I + 33F + 77I + 90M",2.9 fold
same,Fold change in IC50,"Table 13, V048880, genotype 10I + 33F + 77I + 90M",1.3 fold
same,Fold change in IC50,"Table 13, V052940, genotype 71V",0.7 fold
same,Fold change in IC50,"Table 13, V052942, genotype 10I + 71V",0.6 fold
same,Fold change in IC50,"Table 13, V052943, genotype 10I + 90M",0.5 fold
same,Fold change in IC50,"Table 13, V052944, genotype 10I + 90M",0.5 fold
same,Fold change in IC50,"Table 13, V052945, genotype 77I + 90M",0.6 fold
same,Fold change in IC50,"Table 13, V052946, genotype 71V + 90M",0.9 fold
same,Fold change in IC50,"Table 13, V052947, genotype 10I + 77I + 90M",2.9 fold
same,Fold change in IC50,"Table 13, V052948, genotype 10I + 71V + 90M",8.6 fold
same,Fold change in IC50,"Table 13, V052949, genotype 10I + 71V + 77I + 90M",2.7 fold
same,Fold change in IC50,"Table 13, V052950, genotype 33F",0.6 fold
same,Fold change in IC50,"Table 13, V052951, genotype 33F + 77I",0.4 fold
same,Fold change in IC50,"Table 13, V052953, genotype 10I + 33F + 77I",0.8 fold
same,Fold change in IC50,"Table 13, V052954, genotype 33F + 77I + 90M",1.7 fold
same,Fold change in IC50,"Table 13, V052955, genotype 33F + 71V + 90M",5.3 fold
same,Fold change in IC50,"Table 13, V052968, genotype 10L/I + 33F/L + 54L + 77I",1.3 fold
same,Fold change in IC50,"Table 13, V052969, genotype 10I + 33F + 54L + 90M",1.3 fold
same,Fold change in IC50,"Table 13, V052970, genotype 54L",0.6 fold
same,Fold change in IC50,"Table 13, V052971, genotype 10I + 54L",0.7 fold
same,Fold change in IC50,"Table 13, V052972, genotype 54L + 77I",0.8 fold
same,Fold change in IC50,"Table 13, V052973, genotype 10I + 54L + 77I",0.8 fold
same,Fold change in IC50,"Table 13, V052974, genotype 10I + 54L + 90M",1.7 fold
same,Fold change in IC50,"Table 13, V052975, genotype 10I + 54L + 71V + 90M",10.2 fold
same,Fold change in IC50,"Table 13, V052976, genotype 10I + 54L + 71V + 77I + 90M",1.7 fold
same,Fold change in IC50,"Table 13, V053832, genotype 10I + 33F",0.4 fold
same,Fold change in IC50,"Table 13, V053854, genotype 54L + 71V",1.7 fold
same,Fold change in IC50,"Virco ID 214846, genotype 10I + 33F + 54V + 71V + 77I + 90M, vs mean IC50 of wild type laboratory HIV strain",13.8 fold
same,Fold change in IC50,"Virco ID V021667, genotype 10I, vs mean IC50 of wild type laboratory HIV strain",0.7 fold
same,Fold change in IC50,"Virco ID V030496, genotype 10I + 77I, vs mean IC50 of wild type laboratory HIV strain",0.4 fold
same,Fold change in IC50,"Virco ID V048876, genotype 33F + 54V + 77I + 90M, vs mean IC50 of wild type laboratory HIV strain",0.6 fold
same,Fold change in IC50,"Virco ID V048877, genotype 10I + 33F + 77I + 90M, vs mean IC50 of wild type laboratory HIV strain",2.9 fold
same,Fold change in IC50,"Virco ID V048880, genotype 10I + 33F + 77I + 90M, vs mean IC50 of wild type laboratory HIV strain",1.3 fold
same,Fold change in IC50,"Virco ID V052940, genotype 71V, vs mean IC50 of wild type laboratory HIV strain",0.7 fold
same,Fold change in IC50,"Virco ID V052942, genotype 10I + 71V, vs mean IC50 of wild type laboratory HIV strain",0.6 fold
same,Fold change in IC50,"Virco ID V052943, genotype 10I + 90M, vs mean IC50 of wild type laboratory HIV strain",0.5 fold
same,Fold change in IC50,"Virco ID V052944, genotype 10I + 90M, vs mean IC50 of wild type laboratory HIV strain",0.5 fold
same,Fold change in IC50,"Virco ID V052946, genotype 71V + 90M, vs mean IC50 of wild type laboratory HIV strain",0.9 fold
same,Fold change in IC50,"Virco ID V052947, genotype 10I + 77I + 90M, vs mean IC50 of wild type laboratory HIV strain",2.9 fold
same,Fold change in IC50,"Virco ID V052948, genotype 10I + 71V + 90M, vs mean IC50 of wild type laboratory HIV strain",8.6 fold
same,Fold change in IC50,"Virco ID V052949, genotype 10I + 71V + 77I + 90M, vs mean IC50 of wild type laboratory HIV strain",2.7 fold
same,Fold change in IC50,"Virco ID V052950, genotype 33F, vs mean IC50 of wild type laboratory HIV strain",0.6 fold
same,Fold change in IC50,"Virco ID V052951, genotype 33F + 77I, vs mean IC50 of wild type laboratory HIV strain",0.4 fold
same,Fold change in IC50,"Virco ID V052953, genotype 10I + 33F + 77I, vs mean IC50 of wild type laboratory HIV strain",0.8 fold
same,Fold change in IC50,"Virco ID V052954, genotype 33F + 77I + 90M, vs mean IC50 of wild type laboratory HIV strain",1.7 fold
same,Fold change in IC50,"Virco ID V052955, genotype 33F + 71V + 90M, vs mean IC50 of wild type laboratory HIV strain",5.3 fold
same,Fold change in IC50,"Virco ID V052957, genotype 10I + 33F + 54V + 90M, vs mean IC50 of wild type laboratory HIV strain",1.4 fold
same,Fold change in IC50,"Virco ID V052958, genotype 10I + 33F + 54V + 77I + 90M, vs mean IC50 of wild type laboratory HIV strain",16.3 fold
same,Fold change in IC50,"Virco ID V052959, genotype 10I + 33F + 54V + 77I + 90M, vs mean IC50 of wild type laboratory HIV strain",12.8 fold
same,Fold change in IC50,"Virco ID V052960, genotype 10I + 33F + 54V + 71V + 90M, vs mean IC50 of wild type laboratory HIV strain",9.9 fold
same,Fold change in IC50,"Virco ID V052961, genotype 54V, vs mean IC50 of wild type laboratory HIV strain",0.7 fold
same,Fold change in IC50,"Virco ID V052962, genotype 10I + 54V, vs mean IC50 of wild type laboratory HIV strain",0.8 fold
same,Fold change in IC50,"Virco ID V052963, genotype 54V + 77I + 90M, vs mean IC50 of wild type laboratory HIV strain",1.2 fold
same,Fold change in IC50,"Virco ID V052964, genotype 54V + 71V + 90M, vs mean IC50 of wild type laboratory HIV strain",0.7 fold
same,Fold change in IC50,"Virco ID V052965, genotype 10I + 54V + 77I + 90M, vs mean IC50 of wild type laboratory HIV strain",8.2 fold
same,Fold change in IC50,"Virco ID V052966, genotype 10I + 54V + 71V + 90M, vs mean IC50 of wild type laboratory HIV strain",7.7 fold
same,Fold change in IC50,"Virco ID V052967, genotype 10I + 54V + 71V + 77I + 90M, vs mean IC50 of wild type laboratory HIV strain",0.4 fold
same,Fold change in IC50,"Virco ID V053358, genotype 33F + 54V + 77I + 90M, vs mean IC50 of wild type laboratory HIV strain",1.2 fold
same,Fold change in IC50,"Virco ID V053831, genotype 33F + 54V, vs mean IC50 of wild type laboratory HIV strain",5.4 fold
same,Fold change in IC50,"Virco ID V053832, genotype 10I + 33F, vs mean IC50 of wild type laboratory HIV strain",0.4 fold
